According to patent publication US20240166624A1, “PPARG INVERSE AGONISTS AND USES THEREOF” (Flare Therapeutics Inc., priority 2021, published 2024):

Assays:
[1] = test system: ANGPTL4, a PPARG target gene, in HT1197 (RXRA S427F mutation) cells; assay: Bladder cancer pharmacodynamic assay, HT1197 cell assay (qPCR of ANGPTL4); type: cell-based; conditions: Homo sapiens, 24 hours, 100 nM compound, relative to DMSO control
Description: Bladder Cancer Pharmacodynamic Assay
5637 (PPARG amplified) and HT1197 (RXRA S427F mutation) cells were used for assessment of modulation of PPARG target genes using quantitative PCR. Cells were treated for 24 hours with PPARG inverse agonists prior to analysis of FABP4 (IDT, Cat: Hs.PT 58.20106818) and ANGPTL4 (IDT, Cat: Hs.PT 58.25480012) expression, with expression of the housekeeping gene TBP (IDT, Cat: Hs.PT 58v.39858774) used to normalize expression across samples. Quantitative PCR was performed using an ABI QuantStudio 7 Flex Reaction system. Data were analyzed and reported relative to DMSO control using the comparative Ct method (ΔΔCt).

[2] = target: T1, PPARG/RXRA LBD heterodimer (Homo sapiens, UniProt P37231); assay: PPARγ-MED1 blockade assay (TR-FRET, biotinylated MED1 LxxLL peptide); type: biochemical; conditions: WT PPARG LBD/WT RXRA LBD, 80 nM Rosiglitazone, 3 hours
T1 construct: His-TEV-Q203-Y477; Uniprot ID P37231-2; made in house; host or cells: E. coli
T1 sequence (P37231 203-477 isoform P37231-2): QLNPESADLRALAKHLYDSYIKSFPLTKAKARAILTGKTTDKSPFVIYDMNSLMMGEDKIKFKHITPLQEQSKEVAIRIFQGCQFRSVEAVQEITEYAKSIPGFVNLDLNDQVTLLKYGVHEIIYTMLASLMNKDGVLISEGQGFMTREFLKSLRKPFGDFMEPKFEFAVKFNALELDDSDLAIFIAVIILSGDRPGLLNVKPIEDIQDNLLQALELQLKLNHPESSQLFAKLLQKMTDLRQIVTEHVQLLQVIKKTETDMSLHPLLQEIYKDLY
T1 sequence (P19793 228-462 partner limits assumed): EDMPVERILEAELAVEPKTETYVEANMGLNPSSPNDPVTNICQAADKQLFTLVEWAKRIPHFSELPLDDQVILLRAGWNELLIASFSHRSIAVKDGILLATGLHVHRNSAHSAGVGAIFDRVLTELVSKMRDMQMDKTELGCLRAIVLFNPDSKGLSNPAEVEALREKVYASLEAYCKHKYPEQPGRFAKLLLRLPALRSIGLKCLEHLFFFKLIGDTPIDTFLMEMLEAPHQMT
Description: PPARγ-MED1 Blockade Assay:
Compound potency (IC50) and maximal extent of MED1 repulsion to PPARG were assessed a TR-FRET binding assay measuring association of a biotinylated MED1 LxxLL peptide (Biotin-[…]-amide) to PPARG/RXRA LBD heterodimer. Specifically, a 20 microliters of TR-FRET master mix consisting of 2 nM WT PPARG LBD (E. coli expressed, His-TEV-Q203-Y477; Uniprot ID P37231-2), 2 nM WT RXRA LBD (E. coli expressed, Flag-TEV-E228-T462; […]. Mixtures were incubated for 3 hours and read in an EnVision plate reader (Perkin Elmer) with Ex/Em 615/665. To determine the potency (IC50) and extent of MED1 repulsion, TR-FRET ratios were normalized to the average ratio of DMSO control wells (0%) and to the average minimum ratio for positive control compound (GW9662 (2-chloro-5-nitrobenzanilide); defined as 100%) in CDD Vault and analyzed using the Levenberg-Marquardt algorithm.

[3] = target: T2, PPARG/RXRA LBD heterodimer (Homo sapiens, UniProt P37231); assay: PPARγ-NCOR1 recruitment assay (TR-FRET, biotinylated NCOR1 ID2 peptide); type: biochemical; conditions: 80 nM Rosiglitazone, 3 hours, read-out: PPARG-NCOR recruitment assay EC50
T2 construct: His-TEV-Q203-Y477; Uniprot ID P37231-2; made in house; host or cells: E. coli
Description: PPARγ-NCOR1 Recruitment Assay:
Compound potency (EC50) and maximal extent of NCOR1 recruitment to PPARG were assessed a TR-FRET binding assay measuring association of a biotinylated NCOR1 ID2 peptide (Biotin-[…]-amide) to PPARG/RXRA LBD heterodimer. Specifically, a 20 microliters of TR-FRET master mix consisting of 2 nM WT PPARG LBD (E. coli expressed, His-TEV-Q203-Y477; Uniprot ID P37231-2), 2 nM WT RXRA LBD or mutant S427F RXRA LBD (E. coli expressed, Flag-TEV-E228-T462; […]. Mixtures were incubated for 3 hours and read in an EnVision plate reader (Perkin Elmer) with Ex/Em 615/665. To determine the potency (EC50) and extent of NCOR1 recruitment, TR-FRET ratios were normalized to the average ratio of DMSO control wells (0%) and to the average maximum ratio for positive control compound (T0070907 (2-chloro-5-nitro-N-4-pyridinyl-benzamide); defined as 100%) in CDD Vault and analyzed using the Levenberg-Marquardt algorithm.
T2 sequence (O75376 2251-2273 partner, one chain of several): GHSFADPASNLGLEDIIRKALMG

Row | Compound | inhibition at 0.1 µM [1] [%] | EC50 [2] [nM] | EC50 [3] [nM]
1 | N#Cc1ccc(Cl)c(-c2cc(=O)c3c(F)c(-c4cnc(C(F)(F)F)nc4)c(F)cc3[nH]2)c1 [Example 50, 4-chloro-3-(5,7-difluoro-4-oxo-6-(2-(trifluoromethyl)pyrimidin-5-yl)-1,4-dihydroquinolin-2-yl)benzonitrile] | 80 | 100 to 1000 | 100 to 1000
2 | N#Cc1ccc(Cl)c(-c2cc(=O)c3c(F)c(-c4ccnc(C(F)F)c4)c(F)cc3[nH]2)c1 [Example 51, 4-chloro-3-(6-(2-(difluoromethyl)pyridin-4-yl)-5,7-difluoro-4-oxo-1,4-dihydroquinolin-2-yl)benzonitrile] | 56 | 100 to 1000 | 100 to 1000
3 | CN(C)CCn1cc(-c2c(F)cc3[nH]c(-c4cc(C#N)ccc4Cl)cc(=O)c3c2F)cn1 [Example 52, 4-chloro-3-(6-(1-(2-(dimethylamino)ethyl)-1H-pyrazol-4-yl)-5,7-difluoro-4-oxo-1,4-dihydroquinolin-2-yl)benzonitrile] | 29 | 1000 to 10000 | 1000 to 10000
4 | N#Cc1ccc(Cl)c(-c2cc(=O)c3c(F)c(-c4ccnc(C(F)(F)F)c4)c(F)cc3[nH]2)c1 [Example 53, 4-chloro-3-(5,7-difluoro-4-oxo-6-(2-(trifluoromethyl)pyridin-4-yl)-1,4-dihydroquinolin-2-yl)benzonitrile] | 36 | 100 to 1000 | 100 to 1000
5 | N#Cc1ccc(Cl)c(-c2cc(=O)c3c(F)c(-c4cc[nH]c(=O)c4)c(F)cc3[nH]2)c1 [Example 54, 4-chloro-3-(5,7-difluoro-4-oxo-6-(2-oxo-1,2-dihydropyridin-4-yl)-1,4-dihydroquinolin-2-yl)benzonitrile] | 20 | 100 to 1000 | 100 to 1000
6 | N#Cc1ccc(Cl)c(-c2cc(=O)c3c(F)c(-c4ccc(C(F)(F)F)cn4)c(F)cc3[nH]2)c1 [Example 55, 4-chloro-3-(5,7-difluoro-4-oxo-6-(5-(trifluoromethyl)pyridin-2-yl)-1,4-dihydroquinolin-2-yl)benzonitrile] | 65 | 100 to 1000 | 100 to 1000
7 | N#Cc1ccc(Cl)c(-c2cc(=O)c3c(F)c(-c4ccc5c(c4)NC(=O)C5)c(F)cc3[nH]2)c1 [Example 56, 4-chloro-3-(5,7-difluoro-4-oxo-6-(2-oxoindolin-6-yl)-1,4-dihydroquinolin-2-yl)benzonitrile] | 26 | 100 to 1000 | 100 to 1000
8 | COCc1c(F)cc2[nH]c(-c3cc(C#N)ccc3Cl)cc(=O)c2c1F [Example 57, 4-chloro-3-(5,7-difluoro-6-(methoxymethyl)-4-oxo-1,4-dihydroquinolin-2-yl)benzonitrile] | 87 | 100 to 1000 | 100 to 1000
9 | N#Cc1ccc(Cl)c(-c2cc(=O)c3c(F)c(-c4cnn(C(F)(F)F)c4)c(F)cc3[nH]2)c1 [Example 58, 4-chloro-3-(5,7-difluoro-4-oxo-6-(1-(trifluoromethyl)-1H-pyrazol-4-yl)-1,4-dihydroquinolin-2-yl)benzonitrile] | 88 | 100 to 1000 | 100 to 1000
10 | N#Cc1ccc(Cl)c(-c2cc(=O)c3c(F)c(-c4ccc5c(c4)C(=O)NC5)c(F)cc3[nH]2)c1 [Example 59, 4-chloro-3-(5,7-difluoro-4-oxo-6-(3-oxoisoindolin-5-yl)-1,4-dihydroquinolin-2-yl)benzonitrile] | 42 | 10 to 100 | 10 to 100
11 | Cc1cnc(-c2c(F)cc3[nH]c(-c4cc(C#N)ccc4Cl)cc(=O)c3c2F)cn1 [Example 60, 4-chloro-3-(5,7-difluoro-6-(5-methylpyrazin-2-yl)-4-oxo-1,4-dihydroquinolin-2-yl)benzonitrile] | 80 | 100 to 1000 | 100 to 1000
12 | N#Cc1ccc(Cl)c(-c2cc(=O)c3c(F)c(-c4ccc(C(F)F)cn4)c(F)cc3[nH]2)c1 [Example 61, 4-chloro-3-(6-(5-(difluoromethyl)pyridin-2-yl)-5,7-difluoro-4-oxo-1,4-dihydroquinolin-2-yl)benzonitrile] | 70 | 100 to 1000 | 100 to 1000
13 | N#Cc1ccc(Cl)c(-c2cc(=O)c3c(F)c(-c4cn[nH]c4)c(F)cc3[nH]2)c1 [Example 62, 4-chloro-3-(5,7-difluoro-4-oxo-6-(1H-pyrazol-4-yl)-1,4-dihdroquinolin-2-yl)benzonitrile] | 40 | 100 to 1000 | 100 to 1000
14 | Cn1ncc(-c2c(F)cc3[nH]c(-c4cc(C#N)ccc4Cl)cc(=O)c3c2F)cc1=O [Example 63, 4-chloro-3-(5,7-difluoro-6-(1-methyl-6-oxo-1,6-dihydropyridazin-4-yl)-4-oxo-1,4-dihydroquinolin-2-yl)benzonitrile] | 24 | 100 to 1000 | 100 to 1000
15 | N#Cc1ccc(Cl)c(-c2cc(=O)c3c(F)c(-c4ccc(CO)nc4)c(F)cc3[nH]2)c1 [Example 64, 4-chloro-3-(5,7-difluoro-6-(6-(hydroxymethyl)pyridin-3-yl)-4-oxo-1,4-dihydroquinolin-2-yl)benzonitrile] | 59 | 100 to 1000 | 100 to 1000
16 | Cc1nc(-c2c(F)cc3[nH]c(-c4cc(C#N)ccc4Cl)cc(=O)c3c2F)c[nH]1 [Example 65, 4-chloro-3-(5,7-difluoro-6-(2-methyl-1H-imidazol-4-yl)-4-oxo-1,4-dihydroquinolin-2-yl)benzonitrile] | 44 | 100 to 1000 | 100 to 1000
17 | N#Cc1ccc(Cl)c(-c2cc(=O)c3c(F)c(-c4c[nH]c(C(F)(F)F)n4)c(F)cc3[nH]2)c1 [Example 67, 4-chloro-3-(5,7-difluoro-4-oxo-6-(2-(trifluoromethyl)-1H-imidazol-4-yl)-1,4-dihydroquinolin-2-yl)benzonitrile] | 22 | 10 to 100 | 10 to 100
18 | N#Cc1ccc(Cl)c(-c2cc(=O)c3c(F)c(-c4nccc(=O)[nH]4)c(F)cc3[nH]2)c1 [Example 68, 4-chloro-3-(5,7-difluoro-4-oxo-6-(6-oxo-1,6-dihydropyrimidin-2-yl)-1,4-dihydroquinolin-2-yl)benzonitrile] | 28 | 1000 to 10000 | 1000 to 10000
19 | CC(C)(CO)n1cc(-c2c(F)cc3[nH]c(-c4cc(C#N)ccc4Cl)cc(=O)c3c2F)cn1 [Example 69, 4-chloro-3-(5,7-difluoro-6-(1-(1-hydroxy-2-methylpropan-2-yl)-1H-pyrazol-4-yl)-4-oxo-1,4-dihydroquinolin-2-yl)benzonitrile] | 68 | 100 to 1000 | 100 to 1000
20 | Cc1ccc(-c2c(F)cc3[nH]c(-c4cc(C#N)ccc4Cl)cc(=O)c3c2F)nn1 [Example 70, 4-chloro-3-(5,7-difluoro-6-(6-methylpyridazin-3-yl)-4-oxo-1,4-dihydroquinolin-2-yl)benzonitrile] | 66 | 1000 to 10000 | 1000 to 10000
